Tests used:
[1] = target: T1, Furin (108-574-Tev-Flag-His) enzyme (Homo sapiens, UniProt P09958); assay: Furin enzyme assay; format: biochemical
T1 construct: Furin (108-574-Tev-Flag-His) enzyme was expressed and purified from CHO cells; TEV cleavage site (C); FLAG (C); His (C); made in house; host or cells: CHO cells
Protocol: Reactions were performed in black 384-well polystyrene low volume plates (Greiner). Furin (108-574-Tev-Flag-His) enzyme was expressed and purified from CHO cells. Compounds of the invention were dissolved in DMSO (1.0 mM) and serially diluted 1 to 3 with DMSO through eleven dilutions to provide a final compound concentration range from 0.00017 to 10 μM. 0.05 μL of each concentration was transferred to the corresponding well of an assay plate, and then 5 μL of 40 pM furin enzyme in assay buffer (100 mM HEPES pH7.5, 1 mM CaCl2 and 0.005% Triton X-100) was added using a Multidrop Combi (Thermo) to the compound plates, and mixed by inversion. […] The plates were centrifuged at 500×g for 1 minute and incubated at room temperature for two hours. Enzyme inhibition is then quantified using an Envision instrument (PerkinElmer).
Data were analyzed using AbaseXE 7.3, utilizing a four-parameter curve fit equation. The following values were used to define limits and/or constraints for each of the four parameters: • Minimum—limit −10 to 10 • Maximum—90 to 110 • Slope—limit 0.5 to 2.0 • pXC50 confidence interval—10
Raw counts obtained from the respective plate reader (Perkin Elmer) were captured for data analysis. Curves were generated using the equation: Y=A+[(B−A)/(1+(10^C/x)^D)] • where: A=minimum response • B=maximum response • C=log 10*XC50 • D=slope factor • x=log 10 compound concentration [M]
The results were recorded as pXC50 values (−C in the above equation)

[2] = target: T2, furin (endogenous protease) in U20S cells (Homo sapiens, UniProt P09958); assay: Furin cell-based assay (image-based, Golgi-targeted GFP with BMP10 furin/PCSK cleavage site); conditions: 24-hour incubation, read-out: furin golgi cell pXC50 (converted);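 also: Read-out is mean GFP fluorescence of Golgi puncta per cell by high-content imaging, retained when furin inhibited, over an eleven-point 0.00017–10 µM series, four-parameter fit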
T2 construct: the endogenous protease cleaves GFP; endogenous in cells; host or cells: U2OS cells transduced with a BacMam reporter
T2 sequence (P09958 108-794): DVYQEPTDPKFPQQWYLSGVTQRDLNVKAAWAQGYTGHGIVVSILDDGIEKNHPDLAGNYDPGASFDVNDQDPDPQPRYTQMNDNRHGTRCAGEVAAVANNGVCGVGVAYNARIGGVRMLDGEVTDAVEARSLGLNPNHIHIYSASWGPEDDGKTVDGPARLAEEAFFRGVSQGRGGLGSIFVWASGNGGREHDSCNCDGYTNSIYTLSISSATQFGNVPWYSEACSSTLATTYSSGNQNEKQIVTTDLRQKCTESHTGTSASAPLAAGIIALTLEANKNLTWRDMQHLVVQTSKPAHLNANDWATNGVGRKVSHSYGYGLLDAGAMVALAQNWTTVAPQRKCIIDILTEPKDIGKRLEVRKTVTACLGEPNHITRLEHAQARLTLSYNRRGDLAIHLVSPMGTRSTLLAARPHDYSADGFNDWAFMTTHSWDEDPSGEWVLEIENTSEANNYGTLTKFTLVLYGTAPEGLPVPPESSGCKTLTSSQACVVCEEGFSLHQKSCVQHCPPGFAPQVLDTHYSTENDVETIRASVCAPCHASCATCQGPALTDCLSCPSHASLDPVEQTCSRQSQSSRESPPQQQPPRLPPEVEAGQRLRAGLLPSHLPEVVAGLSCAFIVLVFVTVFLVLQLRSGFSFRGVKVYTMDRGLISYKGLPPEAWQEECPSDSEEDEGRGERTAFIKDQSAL

T1 sequence (P09958 108-574): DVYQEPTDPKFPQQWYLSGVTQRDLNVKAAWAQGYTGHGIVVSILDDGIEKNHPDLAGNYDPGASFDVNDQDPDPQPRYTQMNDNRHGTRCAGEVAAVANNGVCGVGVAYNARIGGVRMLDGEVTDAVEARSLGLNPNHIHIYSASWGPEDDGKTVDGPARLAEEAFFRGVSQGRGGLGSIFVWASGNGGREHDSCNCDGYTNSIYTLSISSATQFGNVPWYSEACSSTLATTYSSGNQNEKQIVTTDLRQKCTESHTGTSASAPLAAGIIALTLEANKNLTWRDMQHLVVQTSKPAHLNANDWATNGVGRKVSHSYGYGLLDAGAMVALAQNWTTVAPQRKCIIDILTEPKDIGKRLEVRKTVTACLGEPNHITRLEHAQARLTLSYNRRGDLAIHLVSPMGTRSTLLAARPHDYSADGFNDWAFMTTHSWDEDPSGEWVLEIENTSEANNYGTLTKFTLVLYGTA

Compound	furin enzyme pIC50 [1]	EC50 [2] [nM]
CNC(=O)NCC1CCN(Cc2cc(Oc3cnc(N4CCN(C(C)CCS(C)(=O)=O)CC4)nc3)nc(-c3cc(Cl)cc(Cl)c3)c2)CC1 (stereo not shown) [Example 18, 1-((1-((2-(3,5-dichlorophenyl)-6-((2-(4-(4-(methylsulfonyl)butan-2-yl)piperazin-1-yl)pyrimidin-5-yl)oxy)pyridin-4-yl)methyl)piperidin-4-yl)methyl)-3-methylurea]	10.7	0.501
CC(=O)NCC1CCN(Cc2cc(Oc3cnc(N4CCN(C(C)CCS(C)(=O)=O)CC4)nc3)nc(-c3cc(Cl)cc(Cl)c3)c2)CC1 (stereo not shown) [Example 19, N-((1-((2-(3,5-dichlorophenyl)-6-((2-(4-(4-(methylsulfonyl)butan-2-yl)piperazin-1-yl)pyrimidin-5-yl)oxy)pyridin-4-yl)methyl)piperidin-4-yl)methyl)acetamide]	10.2	0.398
CNC(=O)NCC1CCN(Cc2cc(Oc3cnc(N4CCN(C(C)CCO)CC4)nc3)nc(-c3cc(Cl)cc(Cl)c3)c2)CC1 (stereo not shown) [Example 20, 1-((1-((2-(3,5-dichlorophenyl)-6-((2-(4-(4-hydroxybutan-2-yl)piperazin-1-yl)pyrimidin-5-yl)oxy)pyridin-4-yl)methyl)piperidin-4-yl)methyl)-3-methylurea]	9.6	1
CC(CO)N1CCN(c2ncc(Oc3cc(CN4CCC(CC(=O)O)CC4)cc(-c4cc(Cl)cc(Cl)c4)n3)cn2)CC1 (stereo not shown) [Example 21, 2-(1-((2-(3,5-dichlorophenyl)-6-((2-(4-(1-hydroxypropan-2-yl)piperazin-1-yl)pyrimidin-5-yl)oxy)pyridin-4-yl)methyl)piperidin-4-yl)acetic acid]	9.9	6.31
O=C(O)CC1CCN(Cc2cc(Oc3cnc(N4CCN(C5CC(O)C5)CC4)nc3)nc(-c3cc(Cl)cc(Cl)c3)c2)CC1 (stereo not shown) [Example 22, 2-(1-((2-(3,5-dichlorophenyl)-6-((2-(4-(3-hydroxycyclobutyl)piperazin-1-yl)pyrimidin-5-yl)oxy)pyridin-4-yl)methyl)piperidin-4-yl)acetic acid]	9.5	10
O=C(O)CC1CCN(Cc2cc(Oc3cnc(N4CCN(C(CO)CO)CC4)nc3)nc(-c3cc(Cl)cc(Cl)c3)c2)CC1 [Example 23, 2-(1-((2-(3,5-dichlorophenyl)-6-((2-(4-(1,3-dihydroxypropan-2-yl)piperazin-1-yl)pyrimidin-5-yl)oxy)pyridin-4-yl)methyl)piperidin-4-yl)acetic acid]	8.3	15.8
C[C@]1(O)C[C@@H](N2CCN(c3ncc(Oc4cc(CN5CCC(CC(=O)O)CC5)cc(-c5cc(Cl)cc(Cl)c5)n4)cn3)CC2)C1 [Example 24, 2-(1-((2-(3,5-dichlorophenyl)-6-((2-(4-((1s,3s)-3-hydroxy-3-methylcyclobutyl)piperazin-1-yl)pyrimidin-5-yl)oxy)pyridin-4-yl)methyl)piperidin-4-yl)acetic acid]	8.6	12.6
C[C@]1(O)C[C@H](N2CCN(c3ncc(Oc4cc(CN5CCC(CC(=O)O)CC5)cc(-c5cc(Cl)cc(Cl)c5)n4)cn3)CC2)C1 [Example 25, 2-(1-((2-(3,5-dichlorophenyl)-6-((2-(4-((1r,3r)-3-hydroxy-3-methylcyclobutyl)piperazin-1-yl)pyrimidin-5-yl)oxy)pyridin-4-yl)methyl)piperidin-4-yl)acetic acid]	8.2	12.6
CC(=O)NCC1CCN(Cc2cc(Oc3ccc(N4CCN([C@H]5C[C@H](NS(C)(=O)=O)C5)CC4)nc3)nc(-c3cc(Cl)cc(Cl)c3)c2)CC1 [Example 26, N-((1-((2-(3,5-Dichlorophenyl)-6-((6-(4-((trans)-3-(methylsulfonamido)cyclobutyl)piperazin-1-yl)pyridin-3-yl)oxy)pyridin-4-yl)methyl)piperidin-4-yl)methyl)acetamide]	9.9	1.58
CC(=O)NCC1CCN(Cc2cc(Oc3ccc(N4CCN([C@H]5C[C@@H](NS(C)(=O)=O)C5)CC4)nc3)nc(-c3cc(Cl)cc(Cl)c3)c2)CC1 [Example 27, N-((1-((2-(3,5-Dichlorophenyl)-6-((6-(4-((cis)-3-(methylsulfonamido)cyclobutyl)piperazin-1-yl)pyridin-3-yl)oxy)pyridin-4-yl)methyl)piperidin-4-yl)methyl)acetamide]	9.6	3.16
CC(=O)NCC1CCN(Cc2cc(Oc3ccc(N4CCN(CCN)CC4)nc3)nc(-c3cc(Cl)cc(Cl)c3)c2)CC1 [Example 28, N-((1-((2-((6-(4-(2-Aminoethyl)piperazin-1-yl)pyridin-3-yl)oxy)-6-(3,5-dichlorophenyl)pyridin-4-yl)methyl)piperidin-4-yl)methyl)acetamide]	9	2
CC(=O)NCC1CCN(Cc2cc(Oc3ccc(N4CCN(CC(O)CCO)CC4)nc3)nc(-c3cc(Cl)cc(Cl)c3)c2)CC1 (stereo not shown) [Example 29, N-((1-((2-(3,5-Dichlorophenyl)-6-((6-(4-(2,4-dihydroxybutyl)piperazin-1-yl)pyridin-3-yl)oxy)pyridin-4-yl)methyl)piperidin-4-yl)methyl)acetamide]	9	< 0.794
CC(=O)NCC1CCN(Cc2cc(Oc3ccc(N4CCN(CCP(=O)(O)O)CC4)nc3)nc(-c3cc(Cl)cc(Cl)c3)c2)CC1 [Example 30, (2-(4-(5-((4-((4-(Acetamidomethyl)piperidin-1-yl)methyl)-6-(3,5-dichlorophenyl)pyridin-2-yl)oxy)pyridin-2-yl)piperazin-1-yl)ethyl)phosphonic acid]	9.1	501
CC(=O)NCC1CCN(Cc2cc(Oc3ccc(N4CCN(CCOC(N)=O)CC4)nc3)nc(-c3cc(Cl)cc(Cl)c3)c2)CC1 [Example 31, 2-(4-(5-((4-((4-(Acetamidomethyl)piperidin-1-yl)methyl)-6-(3,5-dichlorophenyl)pyridin-2-yl)oxy)pyridin-2-yl)piperazin-1-yl)ethyl carbamate]	9.1	6.31
CC(=O)NCC1CCN(Cc2cc(Oc3ccc(N4CCN(CCN(C)S(C)(=O)=O)CC4)nc3)nc(-c3cc(Cl)cc(Cl)c3)c2)CC1 [Example 32, N-((1-((2-(3,5-dichlorophenyl)-6-((6-(4-(2-(N-methylmethylsulfonamido)ethyl)piperazin-1-yl)pyridin-3-yl)oxy)pyridin-4-yl)methyl)piperidin-4-yl)methyl)acetamide]	8.7	10
CC(=O)NCC1CCN(Cc2cc(Oc3ccc(N4CCN(C(=O)CCC(=O)O)CC4)nc3)nc(-c3cc(Cl)cc(Cl)c3)c2)CC1 [Example 33, 4-(4-(5-((4-((4-(Acetamidomethyl)piperidin-1-yl)methyl)-6-(3,5-dichlorophenyl)pyridin-2-yl)oxy)pyridin-2-yl)piperazin-1-yl)-4-oxobutanoic acid]	8.5	39.8
CC(=O)NCC1CCN(Cc2cc(Oc3ccc(N4CCN(CC5(CO)CC5)CC4)nc3)nc(-c3cc(Cl)cc(Cl)c3)c2)CC1 [Example 34, N-((1-((2-(3,5-Dichlorophenyl)-6-((6-(4-((1-(hydroxymethyl)cyclopropyl)methyl)piperazin-1-yl)pyridin-3-yl)oxy)pyridin-4-yl)methyl)piperidin-4-yl)methyl)acetamide]	9.4	5.01
CC(=O)NCC1CCN(Cc2cc(Oc3ccc(N4CCN(CC5(O)CC5)CC4)nc3)nc(-c3cc(Cl)cc(Cl)c3)c2)CC1 [Example 35, N-((1-((2-(3,5-Dichlorophenyl)-6-((6-(4-((1-hydroxycyclopropyl)methyl)piperazin-1-yl)pyridin-3-yl)oxy)pyridin-4-yl)methyl)piperidin-4-yl)methyl)acetamide]	8.8	3.16
CCNC(=O)CC1CCN(Cc2cc(Oc3ccc(N4CCN(CCCS(C)(=O)=O)CC4)nc3)nc(-c3cc(Cl)cc(Cl)c3)c2)CC1 [Example 36, 2-(1-((2-(3,5-Dichlorophenyl)-6-((6-(4-(3-(methylsulfonyl)propyl)piperazin-1-yl)pyridin-3-yl)oxy)pyridin-4-yl)methyl)piperidin-4-yl)-N-ethylacetamide]	9	5.01
CNCc1cc(Oc2cnc(N3CCN(CCCS(C)(=O)=O)CC3)nc2)nc(-c2cc(Cl)cc(Cl)c2)c1 [Example 37, 1-(2-(3,5-Dichlorophenyl)-6-((2-(4-(3-(methylsulfonyl)propyl)piperazin-1-yl)pyrimidin-5-yl)oxy)pyridin-4-yl)-N-methylmethanamine]	8.5	12.6
